Test system: adult pollen beetles with resistance against pyrethroids
Experiment: Field trial on a commercial oilseed rape field: spray treatment, count of living adult pollen beetles
Assay type: in vivo, Meligethes aeneus
Procedure: Experiments were carried out on a commercial oilseed rape field location previously confirmed to have adult pollen beetles with resistance against pyrethroids. The experiments were carried out according the GEP settings for field trial set up and corresponding assessment of the treatments. The lay-out was a standard randomized block de-sign with 4 replicates. The different treatments (see Table 1 below) were prepared by diluting the respective products in water by well homogenized standard stirring in order to spray the four replicates at a spray volume of 300 to 400 liter per ha. The products used were the commercial formulation Fastac® OESC (containing 100 g per liter alpha-cypermethrin) and an experimental liquid formulation (containing 303.5 g PBO on a weight per weight basis). The three combinations of Fastac® OESC and the PBO containing liquid formulation in the Table 1 below were made as a tank mix of a standard rate of Fastac® OESC and a varying rate for the PBO containing formulation. The treatments were sprayed on the plants and the adult pollen beetles present on the plant by means of a knapsack sprayer at standard air pressure. The treatments were applied shortly after each other by appropriate rinsing in between according the GEP standard procedure. The development growth stage of the oilseed rape according to the BBCH code at the time of the treatment was 50 to 59 (the abbreviation “BBCH” stands for the Biologische Bundesanstalt, Bundessortenamt and Chemische Industrie). Shortly before the treatment the present adult pollen beetles were assessed in counting the number of adult pollen beetles present on 50 inflorescences—randomly taken—in each of the replicates. The total number of adult pollen beetles on the 4 replicates was then divided by 4 to give the average number of living adult pollen beetles per 50 inflorescenses, mentioned in the Table 1 below. The same procedure was followed respectively 3 and 6 days after the treatment (DAT).

SMILES: CC1(C)C(C=C(Cl)Cl)C1C(=O)OC(C#N)c1cccc(Oc2ccccc2)c1 (stereo not drawn) [alpha-cypermethrin]
- Average number of living adult pollen beetles per 50 inflorescenses (alpha-cypermethrin 7.5 g a.i./ha, 0 DAT (count shortly before treatment), oilseed rape field, 4 replicates): 343
- Average number of living adult pollen beetles per 50 inflorescenses (alpha-cypermethrin 7.5 g a.i./ha, 3 DAT): 119
- Average number of living adult pollen beetles per 50 inflorescenses (alpha-cypermethrin 7.5 g a.i./ha, 6 DAT): 75
- Average number of living adult pollen beetles per 50 inflorescenses (alpha-cypermethrin 12.5 g a.i./ha, 0 DAT (count shortly before treatment)): 352
- Average number of living adult pollen beetles per 50 inflorescenses (alpha-cypermethrin 12.5 g a.i./ha, 3 DAT): 116
- Average number of living adult pollen beetles per 50 inflorescenses (alpha-cypermethrin 12.5 g a.i./ha, 6 DAT): 79
